Columns and labels:
Assay type in all cases: in vivo
[1] = system: large (Lg) crabgrass (Digitaria sanguinalis); assay: Test A pre-/postemergence greenhouse herbicide test, visual injury rating 0-100
Outline: (§1)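 Pre + post at same time; soil = loam/sand. Post stage 1–2 leaf, 2–10 cm. Formulation: non-phytotoxic solvent mix w/ surfactant. Greenhouse ~10 d, visual rating vs untreated, 0 (no effect)–100 (complete control).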

[2] = system: velvetleaf (Abutilon theophrasti); assay: as above
Outline: as §1

[3] = system: wheat (Triticum aestivum); assay: as above
Outline: as §1

[4] = system: morningglory (Ipomoea spp.); assay: as above
Outline: as §1

corn (Zea mays) = assay: as above
Outline: as §1

[5] = system: barnyardgrass (Echinochloa crus-galli); assay: as above
Outline: as §1

[6] = system: pigweed (Amaranthus retroflexus); assay: as above
Outline: as §1

[7] = system: giant foxtail (Setaria faberii); assay: as above
Outline: as §1

[8] = system: blackgrass (Alopecurus myosuroides); assay: Test C pre-/postemergence greenhouse test, plant response rating 0-100
Outline: (§2)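 Visual 0–100 control scores, taken 13 to 15 days post-application in a greenhouse, reflect treatment preemergence (seed in loam soil with sand) or postemergence (2–18 cm plants in peat moss, vermiculite medium). A dash marks no result.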

[9] = system: ragweed (common ragweed, Ambrosia elatior); assay: as above
Outline: as §2

wild oat (Avena fatua) = assay: Test C postemergence greenhouse test, plant response rating 0-100; settings: for Plant response rating, Oat, Wild: scale 0 to 100
Outline: (§3)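 Postemergence spray onto 1–4-leaf potted seedlings, greenhouse incubation 13–15 days. Visual percent-control rating (0–100) against untreated plants.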

kochia (Kochia scoparia) = assay: as above; settings: for Plant response rating, Kochia: scale 0 to 100
Outline: as §3

[10] = system: chickweed (common chickweed, Stellaria media); assay: as above; settings: for Plant response rating, Chickweed: scale 0 to 100
Outline: as §3

[11] = Postemergence, 125 g ai/ha, scale 0 to 100
[12] = Postemergence, 250 g ai/ha, scale 0 to 100
[13] = Postemergence, 500 g ai/ha, scale 0 to 100

Cn1cc(C(=NN2CCCC2)c2ccccc2)c(-c2cc(Cl)c(Cl)c(Cl)c2)n1 [Compound 25]
Plant response rating (0 to 100 scale), Crabgrass, Large ([1]; Postemergence, 1000 g ai/ha): 0
Plant response rating (0 to 100 scale), Crabgrass, Large ([1]; Preemergence, 1000 g ai/ha): 0
Plant response rating (0 to 100 scale), Velvetleaf ([2]; Postemergence, 1000 g ai/ha): 80
Plant response rating (0 to 100 scale), Velvetleaf ([2]; Preemergence, 1000 g ai/ha): 20
Plant response rating (0 to 100 scale), Wheat ([3]; Postemergence, 1000 g ai/ha): 0
Plant response rating (0 to 100 scale), Wheat ([3]; Preemergence, 1000 g ai/ha): 0
Plant response rating (0 to 100 scale), Morningglory ([4]; Postemergence, 1000 g ai/ha): 0
Plant response rating (0 to 100 scale), Morningglory ([4]; Preemergence, 1000 g ai/ha): 0
Plant response rating (0 to 100 scale), Corn (corn (Zea mays); Postemergence, 1000 g ai/ha): 0
Plant response rating (0 to 100 scale), Corn (corn (Zea mays); Preemergence, 1000 g ai/ha): 0
Plant response rating (0 to 100 scale), Barnyardgrass ([5]; Postemergence, 1000 g ai/ha): 0
Plant response rating (0 to 100 scale), Barnyardgrass ([5]; Preemergence, 1000 g ai/ha): 0
Plant response rating (0 to 100 scale), Pigweed ([6]; Postemergence, 1000 g ai/ha): 90
Plant response rating (0 to 100 scale), Pigweed ([6]; Preemergence, 1000 g ai/ha): 90
Plant response rating (0 to 100 scale), Foxtail, Giant ([7]; Postemergence, 1000 g ai/ha): 0
Plant response rating (0 to 100 scale), Foxtail, Giant ([7]; Preemergence, 1000 g ai/ha): 0
Plant response rating (0 to 100), Blackgrass ([8]; Postemergence, 31 g ai/ha): 0
Plant response rating (0 to 100), Blackgrass ([8]; Postemergence, 62 g ai/ha): 0
Plant response rating, Blackgrass [8, 11]: 0
Plant response rating, Blackgrass [8, 12]: 5
Plant response rating (0 to 100), Ragweed ([9]; Postemergence, 62 g ai/ha): 0
Plant response rating (0 to 100), Ragweed ([9]; Postemergence, 125 g ai/ha): 0
Plant response rating, Ragweed [9, 12]: 0
Plant response rating (0 to 100), Oat, Wild (wild oat (Avena fatua); 62 g ai/ha): 0
Plant response rating (0 to 100), Oat, Wild (wild oat (Avena fatua); 125 g ai/ha): 0
Plant response rating, Oat, Wild (wild oat (Avena fatua); 250 g ai/ha): 10
Plant response rating (0 to 100), Kochia (kochia (Kochia scoparia); 62 g ai/ha): 0
Plant response rating (0 to 100), Kochia (kochia (Kochia scoparia); 125 g ai/ha): 15
Plant response rating, Kochia (kochia (Kochia scoparia); 250 g ai/ha): 15
Plant response rating (0 to 100), Chickweed ([10]; 31 g ai/ha): 10
Plant response rating (0 to 100), Chickweed ([10]; 62 g ai/ha): 75
Plant response rating (0 to 100), Chickweed ([10]; 125 g ai/ha): 75
Plant response rating, Chickweed ([10]; 250 g ai/ha): 75

ON=C(c1ccccc1)c1c[nH]nc1-c1cc(Cl)cc(Cl)c1 [Compound 50]
Plant response rating (0 to 100 scale), Crabgrass, Large ([1]; Postemergence, 1000 g ai/ha): 0
Plant response rating (0 to 100 scale), Crabgrass, Large ([1]; Preemergence, 1000 g ai/ha): 0
Plant response rating (0 to 100 scale), Velvetleaf ([2]; Postemergence, 1000 g ai/ha): 100
Plant response rating (0 to 100 scale), Velvetleaf ([2]; Preemergence, 1000 g ai/ha): 90
Plant response rating (0 to 100 scale), Wheat ([3]; Postemergence, 1000 g ai/ha): 0
Plant response rating (0 to 100 scale), Wheat ([3]; Preemergence, 1000 g ai/ha): 0
Plant response rating (0 to 100 scale), Morningglory ([4]; Postemergence, 1000 g ai/ha): 0
Plant response rating (0 to 100 scale), Morningglory ([4]; Preemergence, 1000 g ai/ha): 0
Plant response rating (0 to 100 scale), Corn (corn (Zea mays); Postemergence, 1000 g ai/ha): 0
Plant response rating (0 to 100 scale), Corn (corn (Zea mays); Preemergence, 1000 g ai/ha): 0
Plant response rating (0 to 100 scale), Barnyardgrass ([5]; Postemergence, 1000 g ai/ha): 0
Plant response rating (0 to 100 scale), Barnyardgrass ([5]; Preemergence, 1000 g ai/ha): 0
Plant response rating (0 to 100 scale), Pigweed ([6]; Postemergence, 1000 g ai/ha): 90
Plant response rating (0 to 100 scale), Pigweed ([6]; Preemergence, 1000 g ai/ha): 100
Plant response rating (0 to 100 scale), Foxtail, Giant ([7]; Postemergence, 1000 g ai/ha): 10
Plant response rating (0 to 100 scale), Foxtail, Giant ([7]; Preemergence, 1000 g ai/ha): 0
Plant response rating (0 to 100), Blackgrass ([8]; Postemergence, 31 g ai/ha): 0
Plant response rating (0 to 100), Blackgrass ([8]; Postemergence, 62 g ai/ha): 0
Plant response rating (0 to 100), Blackgrass ([8]; Postemergence, 125 g ai/ha): 0
Plant response rating, Blackgrass [8, 12]: 0
Plant response rating (0 to 100), Ragweed ([9]; Postemergence, 62 g ai/ha): 0
Plant response rating (0 to 100), Ragweed ([9]; Postemergence, 125 g ai/ha): 0
Plant response rating, Ragweed [9, 12]: 45
Plant response rating (0 to 100), Oat, Wild (wild oat (Avena fatua); 62 g ai/ha): 0
Plant response rating (0 to 100), Oat, Wild (wild oat (Avena fatua); 125 g ai/ha): 0
Plant response rating, Oat, Wild (wild oat (Avena fatua); 250 g ai/ha): 0
Plant response rating (0 to 100), Kochia (kochia (Kochia scoparia); 62 g ai/ha): 60
Plant response rating (0 to 100), Kochia (kochia (Kochia scoparia); 125 g ai/ha): 65
Plant response rating, Kochia (kochia (Kochia scoparia); 250 g ai/ha): 65
Plant response rating (0 to 100), Chickweed ([10]; 31 g ai/ha): 95
Plant response rating (0 to 100), Chickweed ([10]; 62 g ai/ha): 95
Plant response rating (0 to 100), Chickweed ([10]; 125 g ai/ha): 100
Plant response rating, Chickweed ([10]; 250 g ai/ha): 100

O=C(c1ccccc1)c1cn(S(=O)(=O)CC(F)(F)F)nc1-c1cc(Cl)cc(Cl)c1 [Compound 3]
Plant response rating (0 to 100 scale), Crabgrass, Large ([1]; Postemergence, 125 g ai/ha): 0
Plant response rating (0 to 100 scale), Crabgrass, Large ([1]; Postemergence, 500 g ai/ha): 0
Crabgrass, Large plant response rating (0 = no effect, 100 = complete control) ([1]; Preemergence, 125 g ai/ha): 0
Plant response rating (0 to 100 scale), Crabgrass, Large ([1]; Preemergence, 500 g ai/ha): 0
Plant response rating (0 to 100 scale), Velvetleaf ([2]; Postemergence, 125 g ai/ha): 90
Plant response rating (0 to 100 scale), Velvetleaf ([2]; Postemergence, 500 g ai/ha): 100
Velvetleaf plant response rating (0 = no effect, 100 = complete control) ([2]; Preemergence, 125 g ai/ha): 0
Plant response rating (0 to 100 scale), Velvetleaf ([2]; Preemergence, 500 g ai/ha): 50
Plant response rating (0 to 100 scale), Wheat ([3]; Postemergence, 125 g ai/ha): 0
Plant response rating (0 to 100 scale), Wheat ([3]; Postemergence, 500 g ai/ha): 0
Wheat plant response rating (0 = no effect, 100 = complete control) ([3]; Preemergence, 125 g ai/ha): 0
Plant response rating (0 to 100 scale), Wheat ([3]; Preemergence, 500 g ai/ha): 0
Plant response rating (0 to 100 scale), Morningglory ([4]; Postemergence, 125 g ai/ha): 0
Plant response rating (0 to 100 scale), Morningglory ([4]; Postemergence, 500 g ai/ha): 0
Morningglory plant response rating (0 = no effect, 100 = complete control) ([4]; Preemergence, 125 g ai/ha): 0
Plant response rating (0 to 100 scale), Morningglory ([4]; Preemergence, 500 g ai/ha): 0
Plant response rating (0 to 100 scale), Corn (corn (Zea mays); Postemergence, 125 g ai/ha): 0
Plant response rating (0 to 100 scale), Corn (corn (Zea mays); Postemergence, 500 g ai/ha): 0
Corn plant response rating (0 = no effect, 100 = complete control) (corn (Zea mays); Preemergence, 125 g ai/ha): 0
Plant response rating (0 to 100 scale), Corn (corn (Zea mays); Preemergence, 500 g ai/ha): 0
Plant response rating (0 to 100 scale), Barnyardgrass ([5]; Postemergence, 125 g ai/ha): 0
Plant response rating (0 to 100 scale), Barnyardgrass ([5]; Postemergence, 500 g ai/ha): 0
Barnyardgrass plant response rating (0 = no effect, 100 = complete control) ([5]; Preemergence, 125 g ai/ha): 0
Plant response rating (0 to 100 scale), Barnyardgrass ([5]; Preemergence, 500 g ai/ha): 0
Plant response rating (0 to 100 scale), Pigweed ([6]; Postemergence, 125 g ai/ha): 80
Plant response rating (0 to 100 scale), Pigweed ([6]; Postemergence, 500 g ai/ha): 100
Pigweed plant response rating (0 = no effect, 100 = complete control) ([6]; Preemergence, 125 g ai/ha): 60
Plant response rating (0 to 100 scale), Pigweed ([6]; Preemergence, 500 g ai/ha): 80
Plant response rating (0 to 100 scale), Foxtail, Giant ([7]; Postemergence, 125 g ai/ha): 0
Plant response rating (0 to 100 scale), Foxtail, Giant ([7]; Postemergence, 500 g ai/ha): 0
Foxtail, Giant plant response rating (0 = no effect, 100 = complete control) ([7]; Preemergence, 125 g ai/ha): 0
Plant response rating (0 to 100 scale), Foxtail, Giant ([7]; Preemergence, 500 g ai/ha): 0
Plant response rating (0 to 100), Blackgrass ([8]; Postemergence, 62 g ai/ha): 0
Plant response rating, Blackgrass [8, 11]: 0
Plant response rating, Blackgrass [8, 12]: 0
Plant response rating, Blackgrass [8, 13]: 0
Plant response rating, Blackgrass ([8]; Preemergence, 62 g ai/ha): 0
Plant response rating, Blackgrass ([8]; Preemergence, 125 g ai/ha): 0
Plant response rating, Blackgrass ([8]; Preemergence, 250 g ai/ha): 0
Plant response rating, Blackgrass ([8]; Preemergence, 500 g ai/ha): 0
Plant response rating (0 to 100), Ragweed ([9]; Postemergence, 62 g ai/ha): 20
Plant response rating (0 to 100), Ragweed ([9]; Postemergence, 125 g ai/ha): 25
Plant response rating, Ragweed [9, 12]: 65
Plant response rating, Ragweed [9, 13]: 65
Plant response rating, Ragweed ([9]; Preemergence, 62 g ai/ha): 0
Plant response rating, Ragweed ([9]; Preemergence, 125 g ai/ha): 0
Plant response rating, Ragweed ([9]; Preemergence, 250 g ai/ha): 70
Plant response rating, Ragweed ([9]; Preemergence, 500 g ai/ha): 95
Plant response rating, Ragweed ([9]; Preemergence, 0 to 100 scale (0 no effect, 100 complete control), rate 500 g ai/ha per head r3, sub-head of this section not shown): 35
Plant response rating (0 to 100), Oat, Wild (wild oat (Avena fatua); 62 g ai/ha): 0
Plant response rating (0 to 100), Oat, Wild (wild oat (Avena fatua); 125 g ai/ha): 0
Plant response rating, Oat, Wild (wild oat (Avena fatua); 250 g ai/ha): 0
Plant response rating, Oat, Wild (wild oat (Avena fatua); 500 g ai/ha): 0
Plant response rating (0 to 100), Kochia (kochia (Kochia scoparia); 62 g ai/ha): 80
Plant response rating (0 to 100), Kochia (kochia (Kochia scoparia); 125 g ai/ha): 85
Plant response rating, Kochia (kochia (Kochia scoparia); 250 g ai/ha): 85
Plant response rating, Kochia (kochia (Kochia scoparia); 500 g ai/ha): 85
Plant response rating (0 to 100), Chickweed ([10]; 62 g ai/ha): 100
Plant response rating (0 to 100), Chickweed ([10]; 125 g ai/ha): 100
Plant response rating, Chickweed ([10]; 250 g ai/ha): 100
Plant response rating, Chickweed ([10]; 500 g ai/ha): 100

Source: patent US10167262B2, “Herbicidal substituted 3-arylpyrazoles” (FMC CORPORATION, priority 2014, dated 2019)
